Usually melting point stands for the temperature of the solid-liquid transition.

The source of these data is patent US7125881B2, “Use of pyrimidine—or triazine—2 carbonitiles for treating diseases associated with cysteine prostease activity and novel pyrimidine-2-carbonitile derivatives” (AstraZeneca AB, priority 2002, dated 2006).

Structures can show the parent of a compound that is named as a salt.

Molecule `COc1c(Nc2ccc(Cl)cc2)nc(C#N)nc1N1CCNCC1` (as salt: trifluoroacetate) [Example 44, 4-[(4-Chlorophenyl)amino]-5-methoxy-6-piperazin-1-ylpyrimidine-2-carbonitrile] had a melting point of 230 °C.

Molecule `COc1c(Nc2ccc(Cl)cc2)nc(C#N)nc1N1CC[C@H](N)C1` (as salt: trifluoroacetate) [Example 46, 4-[(3S)-3-Aminopyrrolidin-1-yl]-6-[(4-chlorophenyl)amino]-5-methoxypyrimidine-2-carbonitrile] yielded a melting point of 345 to 347 °C.

`COc1c(Nc2ccc(Cl)cc2)nc(C#N)nc1N1CCN(CCCN(C)C)CC1` (as salt: trifluoroacetate) [Example 47, 4-[(4-Chlorophenyl)amino]-6-{4-[3-(dimethylamino)propyl]piperazin-1-yl}-5-methoxypyrimidine-2-carbonitrile] displayed a melting point of 210 to 212 °C.

Molecule `COc1c(Nc2ccc(Cl)cc2)nc(C#N)nc1N1CCOCC1` [Example 45, 4-[(4-Chlorophenyl)amino]-5-methoxy-6-morpholin-4-ylpyrimidine-2-carbonitrile] showed a melting point of 176 °C.

For the molecule `COc1c(Nc2ccc(Cl)cc2)nc(C#N)nc1N(C)C` [Example 48, 4-[(4-Chlorophenyl)amino]-6-(dimethylamino)5-methoxypyrimidine-2-carbonitrile], the melting point is 173 °C.

The molecule `COc1c(Nc2ccc(Cl)cc2)nc(C#N)nc1N1CCNC(=O)C1` [Example 49, 4-[(4-Chlorophenyl)amino]-5-methoxy-6(3-oxopiperazin-1-yl)pyrimidine-2-carbonitrile] yielded a melting point of 244 °C.

Molecule `N#Cc1nc(Nc2ccc(Cl)cc2)c(N)c(N2CCOCC2)n1` [Example 52, 5-Amino-4-[(4-chlorophenyl)amino]-6-morpholin-4-ylpyrimidine-2-carbonitrile] had a melting point of 253 to 254 °C.

`CCNc1nc(C#N)nc(Nc2ccc(Cl)cc2)c1N` [Example 53, 5-Amino-4[(4-Chlorophenyl)amino]-6(ethylamino)pyrimidine-2-carbonitrile]: the melting point fell in the range of 211 to 212 °C.
